The values that follow are results of earlier work, collected in US11167054B2, “Activated disinfectant hydrogen peroxide compositions” (LONZA, LLC, priority 2014, dated 2021).

Molecules are shown by their SMILES. Where two headings read alike, the source gives them in different places.

Where [1] appears, read: 6 wt. % hydrogen peroxide solution, 5 minutes contact time.
The mark [2] stands for this setting: 6000 ppm (0.6 wt. %) hydrogen peroxide solution, 5 minute contact time.

For `OO` [hydrogen peroxide], the “Log reduction against Pseudomonas Aeruginosa” value in the data set with Pseudomonas Aeruginosa (setting [1]) is given as less than 2 Log; in the data set on Pseudomonas Aeruginosa (setting [2]), less than 1 Log. For the same compound, the “Log reduction against Staphylococcus Aureus” value in the data set with Staphylococcus Aureus (setting [1]) was roughly 3 Log. In addition, in the data set on Staphylococcus Aureus (setting [2]), the “log reduction against Staphylococcus Aureus” value is recorded as roughly 1 log.
